From patent US20060045910A1, “Preserved fusogenic vesicles” (priority 2004, published 2006)

Tested on: rat cardiomyocyte cells
Test: Uptake of ATP by rat cardiomyocyte cells (FIG. 5)
Assay type: cell-based
Excerpt: While not wishing to be bound by any specific theory, it is currently believed that the dehydration of the vesicles that occurs during freeze-drying causes more ATP to enter the fusogenic vesicles. In this manner, the preserved and re-hydrated fusogenic vesicles may contain a higher concentration of ATP than their unpreserved counterparts.

## Nc1ncnc2c1ncn2[C@@H]1O[C@H](COP(=O)(O)OP(=O)(O)OP(=O)(O)O)[C@@H](O)[C@H]1O [unencapsulated ATP, adenosine triphosphate]
  uptake of ATP by cells: barely absorbed
